From paper PMC11109052, “Metabolism characterization and toxicity of N-hydap, a marine candidate drug for lung cancer therapy by LC–MS method” (Natural Products and Bioprospecting, 2024) come the findings set out here.

In one data set the test system is Cyp2b10. Description: Real-time PCR mRNA level after 7 days gavage: Cyp2b10. The class given is in vivo. As to conditions: mice, 2, 5, 10 mg/kg p.o. 7 days. Here is the method:
Mice were randomly divided into four groups, with eight animals in each group. The mice received oral pretreatment with N-hydap for 7 days at doses of 2, 5, and 10 mg/kg/day, which were considered as the low dose, medium dose, and high dose, respectively. Correspondingly, the control group received PBS. On the 8th day, the liver and kidneys were removed, and organs from eight mice per group were combined to prepare MLMs and MKMs using the detailed procedures above. Subsequently, we determined the activity of CYP and UGT enzymes by specific substrate metabolized with MLMs (0.5 mg/mL) and MKMs (0.2 mg/mL) in vitro. […] In the ex vivo experiments, the activity of enzymes was measured by quantifying the production of various metabolites (nM/mg protein/min). […] The measurements were performed using multiple reaction monitoring (MRM) transitions, which are specific mass spectrometry transitions used for quantification. […]
(§1) Total RNA from liver and kidney samples taken after 7 days of N-hydap gavage was extracted using the Animal Total RNA Isolation Kit (Foregene, Chengdu, Sichuan, China) following the manufacturer’s instructions. The concentrations of total RNA were determined by a nucleic acid concentration tester at 260/280 nm. […]
(In general: Quantitative PCR measures a nucleic acid by following its amplification.)

The next data set deals with Cyp2d22. As to the kind of experiment: Real-time PCR mRNA level after 7 days gavage: Cyp2d22 (human homolog CYP2D6). In kind it is in vivo, mice. Details: key to CYP2D6 mNA expression: ↑: up-regulation; ↓: down-regulation; –: no change. As for the experimental part: Mice were randomly divided into four groups, with eight animals in each group. The mice received oral pretreatment with N-hydap for 7 days at doses of 2, 5, and 10 mg/kg/day, which were considered as the low dose, medium dose, and high dose, respectively. Correspondingly, the control group received PBS. On the 8th day, the liver and kidneys were removed, and organs from eight mice per group were combined to prepare MLMs and MKMs using the detailed procedures above. Subsequently, we determined the activity of CYP and UGT enzymes by specific substrate metabolized with MLMs (0.5 mg/mL) and MKMs (0.2 mg/mL) in vitro. Specifically, the following selective substrates were used for the respective enzymes: PH (1 μM) for CYP1A2, DIC (1 μM) for CYP2C9, MP (90 μM) for CYP2C19, DM (1 μM) for CYP2D6, CZX (10 μM) for CYP2E1, Tes (1 μM) for CYP3A4, SN38 (1 μM) for UGT1A1, CACD (100 μM) for UGT1A3, Sero (20 μM) for UGT1A6, and Prop (1 μM) for UGT1A9. All substrates were dissolved in methanol or DMSO. The incubation procedure was carried out as mentioned above, and the reaction was terminated with VER (20 ng/mL) in ESI+ mode and CLP (200 ng/mL) in ESI− mode. In the ex vivo experiments, the activity of enzymes was measured by quantifying the production of various metabolites (nM/mg protein/min). The metabolites and their corresponding enzymes are as follows: APAP from PH, 4-OH-DIC from DIC, 4-OH-MP from MP, DXO from DM, 6-OH-CZX from CZX, 6-OH-Tes from Tes, SN38-G from SN38, CACD-G from CACD, Sero-G from Sero, Prop-G from Prop. The measurements were performed using multiple reaction monitoring (MRM) transitions, which are specific mass spectrometry transitions used for quantification. […]
as §1

For a further data set, the system named is Ugt1a9. Description: DME activity ex vivo in MLMs and MKMs: UGT1A9 (Prop-G from Prop). Details: species or system mice; key to UGT1A9 Enzymatic activity: ↑: up-regulation; ↓: down-regulation; –: no change. Here is the method:
Mice were randomly divided into four groups, with eight animals in each group. The mice received oral pretreatment with N-hydap for 7 days at doses of 2, 5, and 10 mg/kg/day, which were considered as the low dose, medium dose, and high dose, respectively. Correspondingly, the control group received PBS. On the 8th day, the liver and kidneys were removed, and organs from eight mice per group were combined to prepare MLMs and MKMs using the detailed procedures above. Subsequently, we determined the activity of CYP and UGT enzymes by specific substrate metabolized with MLMs (0.5 mg/mL) and MKMs (0.2 mg/mL) in vitro. Specifically, the following selective substrates were used for the respective enzymes: PH (1 μM) for CYP1A2, DIC (1 μM) for CYP2C9, MP (90 μM) for CYP2C19, DM (1 μM) for CYP2D6, CZX (10 μM) for CYP2E1, Tes (1 μM) for CYP3A4, SN38 (1 μM) for UGT1A1, CACD (100 μM) for UGT1A3, Sero (20 μM) for UGT1A6, and Prop (1 μM) for UGT1A9. All substrates were dissolved in methanol or DMSO. The incubation procedure was carried out as mentioned above, and the reaction was terminated with VER (20 ng/mL) in ESI+ mode and CLP (200 ng/mL) in ESI− mode. In the ex vivo experiments, the activity of enzymes was measured by quantifying the production of various metabolites (nM/mg protein/min). The metabolites and their corresponding enzymes are as follows: APAP from PH, 4-OH-DIC from DIC, 4-OH-MP from MP, DXO from DM, 6-OH-CZX from CZX, 6-OH-Tes from Tes, SN38-G from SN38, CACD-G from CACD, Sero-G from Sero, Prop-G from Prop. The measurements were performed using multiple reaction monitoring (MRM) transitions, which are specific mass spectrometry transitions used for quantification. The optimized parameters for each metabolite, such as declustering potential and collision energy, were described in Supplementary Table 1. All experiments were conducted in triplicate, to ensure accuracy and reproducibility.

The nature of data set [1]: Stability in KPI solution (pH 7.4). In kind it is physicochemical. Conditions: for stability, Accuracy (Bias, %): KPI. As for the experimental part: To verify the feasibility and reliability of the established method, studies on the linearity, accuracy, precision, and stability of N-hydap in potassium phosphate buffer (KPI, pH 7.4, were prepared by mixing KH2PO4 and K2HPO4 in corresponding proportions, and then adding NaOH and H3PO4 to pH 7.4), plasma, and tissue homogenate were carried out. The peak area ratios (analyte/IS) were plotted against the concentrations of the analytes prepared to obtain the calibration curves. Least squares linear regression analysis was used to determine the slopes, intercepts, and determination coefficients (R^2) which should be 0.99 or above of calibration curves. The standard curve equations were determined as y = 0.0001512x + 0.04394 (R^2 = 0.9980) for KPI, y = 0.001579x − 0.09233 (R^2 = 0.9923) for plasma, and y = 0.002271x + 0.03542 (R^2 = 0.9978) for tissue homogenate (Supplementary Fig. 1A–C).
The stability of the KPI solution was examined after storage at 4 °C for 24 h and incubation at 37 °C for 4 h, which was conducted using the QC samples at three concentrations (five samples for each concentration). Stability in plasma and tissue homogenate was assessed by testing samples stored at both 4 °C and room temperature for 24 h.

Consider `CC1CCC2C(C=CC(C)C2C(=O)c2c(O)c(C3(O)CCC(O)C4OC43)cn(O)c2=O)C1` (stereo not drawn) [N-hydap, N-Hydroxyapiosporamide], for which, in the data set with Cyp2b10 (kidneys), the “mRNA levels of Cyp2b10” value is given as “slight reduction”. Further, the “decrease of mRNA levels of Cyp2b10” value with Cyp2b10 (liver) is 35%. The “CYP2D6 mNA expression” value with Cyp2d22 (Kidney) and in the data set on Cyp2d22 (Liver) was “–” throughout. Also, the “mRNA levels of Cyp2d22” value in the data set with Cyp2d22 (mice, 2, 5, 10 mg/kg p.o. 7 days) is given as “No significant changes”. In addition, the “UGT1A9 Enzymatic activity” value in the data set on Ugt1a9 (Kidney) is listed as “↑”; with Ugt1a9 (Liver), “↓”. The “reduction of formation rate of Prop-G vs control” value in the data set on Ugt1a9 (liver microsomes of mice pretreated 7 days p.o.) was determined as 47%. Moreover, the “results of the stability experiments” value in data set [1] (KPI solution, plasma and tissue homogenate, all storage conditions) was “no significant degradation”. Also, the “stability, Accuracy (Bias, %)” value came out at 113.85% in data set [1] (200 nM, 4℃ for 24h); 87.75% in data set [1] (200 nM, 37℃ for 4h); 105.48% in data set [1] (600 nM, 4℃ for 24h); 85.75% in data set [1] (600 nM, 37℃ for 4h); 104.40% in data set [1] (2500 nM, 4℃ for 24h); 97.32% in data set [1] (2500 nM, 37℃ for 4h).
